From patent US20240132431A1, “METHOD FOR ALKYLATING ACIDIC FUNCTIONAL GROUP” (Chugai Seiyaku Kabushiki Kaisha, priority 2021, published 2024)

Biological target: T1, Bcl-2 protein (Recombinant Human Bcl-2 Protein) (Homo sapiens, UniProt P10415)
T1 construct: purchased Novus NBP2-34889
Test: Binding evaluation of mixture library compounds to Bcl-2 using AS-MS (affinity selection mass spectrometry)
Conditions: AS-MS, mixture of 1200 compounds, Bcl-2, ASMS Ratio(%)=(A−C)/B×100; for ASMS ratio (%) n = 1: replicate n = 1; for ASMS ratio (%) n = 2: replicate n = 2
Summary of the method: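 Bcl-2 binding is scored from LC/MS signal retained with protein through gel-filtration spin columns, normalised to unfiltered and protein-free controls. Incubation: 20 μM protein, […] per compound, 1 h, 23° C.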

T1 sequence (P10415 whole entry): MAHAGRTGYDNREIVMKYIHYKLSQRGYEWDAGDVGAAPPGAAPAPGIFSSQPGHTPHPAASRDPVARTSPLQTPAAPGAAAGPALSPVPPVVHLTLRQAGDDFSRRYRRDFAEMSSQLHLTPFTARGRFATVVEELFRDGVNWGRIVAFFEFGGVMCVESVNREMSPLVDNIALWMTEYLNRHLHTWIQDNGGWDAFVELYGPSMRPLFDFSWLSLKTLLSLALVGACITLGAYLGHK

Structure (SMILES) | ASMS ratio (%) n = 1 [%] | ASMS ratio (%) n = 2 [%]
CCOc1cncc(-c2ccc(CN3CCN(c4ccc(C(=O)NCC56CC7CC(CC(C7)C5)C6)nn4)CC3)c(OC)c2)c1 [B1A080-01, N-(1-Adamantylmethyl)-6-[4-[[4-(5-ethoxypyridin-3-yl)-2-methoxyphenyl]methyl]piperazin-1-yl]pyridazine-3-carboxamide] | 3.4 | 0.0
CCOc1cccc(-c2cc(CN3CCN(c4ccc(C(=O)NCC56CC7CC(CC(C7)C5)C6)nn4)CC3)cc(OCC)c2)c1 [B1A081-01, N-(1-Adamantylmethyl)-6-[4-[[3-ethoxy-5-(3-ethoxyphenyl)phenyl]methyl]piperazin-1-yl]pyridazine-3-carboxamide] | −10.9 | −5.5
CCOc1cncc(-c2cc(CN3CCN(c4ccc(C(=O)NCC56CC7CC(CC(C7)C5)C6)nn4)CC3)cc(OCC)c2)c1 [B1A082-01, N-(1-Adamantylmethyl)-6-[4-[[3-ethoxy-5-(5-ethoxypyridin-3-yl)phenyl]methyl]piperazin-1-yl]pyridazine-3-carboxamide] | 3.0 | 0.2
CCOc1cccc(-c2cc(CN3CCN(c4ccc(C(=O)NCC56CC7CC(CC(C7)C5)C6)nn4)CC3)cc(OC(C)C)c2)c1 [B1A083-01, N-(1-Adamantylmethyl)-6-[4-[[3-(3-ethoxyphenyl)-5-propan-2-yloxyphenyl]methyl]piperazin-1-yl]pyridazine-3-carboxamide] | −0.3 | 0.5
CCOc1cncc(-c2cc(CN3CCN(c4ccc(C(=O)NCC56CC7CC(CC(C7)C5)C6)nn4)CC3)cc(OC(C)C)c2)c1 [B1A084-01, N-(1-Adamantylmethyl)-6-[4-[[3-(5-ethoxypyridin-3-yl)-5-propan-2-yloxyphenyl]methyl]piperazin-1-yl]pyridazine-3-carboxamide] | 2.1 | −2.7
CCOc1cccc(-c2cc(OC)c(CN3CCN(c4ccc(C(=O)NCC56CC7CC(CC(C7)C5)C6)nn4)CC3)c(OC)c2)c1 [B1A085-01, N-(1-Adamantylmethyl)-6-[4-[[4-(3-ethoxyphenyl)-2,6-dimethoxyphenyl]methyl]piperazin-1-yl]pyridazine-3-carboxamide] | 10.6 | 10.8
CCOc1cncc(-c2cc(OC)c(CN3CCN(c4ccc(C(=O)NCC56CC7CC(CC(C7)C5)C6)nn4)CC3)c(OC)c2)c1 [B1A086-01, N-(1-Adamantylmethyl)-6-[4-[[4-(5-ethoxypyridin-3-yl)-2,6-dimethoxyphenyl]methyl]piperazin-1-yl]pyridazine-3-carboxamide] | 0.0 | −14.8
CCOc1cncc(-c2cc(CN3CCN(c4ccc(C(=O)NCC56CC7CC(CC(C7)C5)C6)nn4)CC3)cc(C(F)(F)F)c2)c1 [B1A088-01, N-(1-Adamantylmethyl)-6-[4-[[3-(5-ethoxypyridin-3-yl)-5-(trifluoromethyl)phenyl]methyl]piperazin-1-yl]pyridazine-3-carboxamide] | 18.7 | −7.1
CCOc1cccc(-c2cc(CN3CCN(c4ccc(C(=O)NCC56CC7CC(CC(C7)C5)C6)nn4)CC3)cc(OC(F)(F)F)c2)c1 [B1A089-01, N-(1-Adamantylmethyl)-6-[4-[[3-(3-ethoxyphenyl)-5-(trifluoromethoxy)phenyl]methyl]piperazin-1-yl]pyridazine-3-carboxamide] | 0.0 | –
CCOc1cncc(-c2cc(CN3CCN(c4ccc(C(=O)NCC56CC7CC(CC(C7)C5)C6)nn4)CC3)cc(OC(F)(F)F)c2)c1 [B1A090-01, N-(1-Adamantylmethyl)-6-[4-[[3-(5-ethoxypyridin-3-yl)-5-(trifluoromethoxy)phenyl]methyl]piperazin-1-yl]pyridazine-3-carboxamide] | 3.3 | −1.0
CCOc1cccc(-c2ccc(CN3CCN(c4ccc(C(=O)NCC56CC7CC(CC(C7)C5)C6)nn4)CC3)c3ccccc23)c1 [B1A091-01, N-(1-Adamantylmethyl)-6-[4-[[4-(3-ethoxyphenyl)naphthalen-1-yl]methyl]piperazin-1-yl]pyridazine-3-carboxamide] | 0.0 | 15.4
CCOc1cncc(-c2ccc(CN3CCN(c4ccc(C(=O)NCC56CC7CC(CC(C7)C5)C6)nn4)CC3)c3ccccc23)c1 [B1A092-01, N-(1-Adamantylmethyl)-6-[4-[[4-(5-ethoxypyridin-3-yl)naphthalen-1-yl]methyl]piperazin-1-yl]pyridazine-3-carboxamide] | 2.6 | −2.4
CCOc1cccc(-c2csc(CN3CCN(c4ccc(C(=O)NCC56CC7CC(CC(C7)C5)C6)nn4)CC3)c2)c1 [B1A093-01, N-(1-Adamantylmethyl)-6-[4-[[4-(3-ethoxyphenyl)thiophen-2-yl]methyl]piperazin-1-yl]pyridazine-3-carboxamide] | −5.3 | 0.0
CCOc1cncc(-c2csc(CN3CCN(c4ccc(C(=O)NCC56CC7CC(CC(C7)C5)C6)nn4)CC3)c2)c1 [B1A094-01, N-(1-Adamantylmethyl)-6-[4-[[4-(5-ethoxypyridin-3-yl)thiophen-2-yl]methyl]piperazin-1-yl]pyridazine-3-carboxamide] | 6.2 | −0.7
CCOc1cccc(C#Cc2ccccc2CN2CCN(c3ccc(C(=O)NCC45CC6CC(CC(C6)C4)C5)nn3)CC2)c1 [B1A095-01, N-(1-Adamantylmethyl)-6-[4-[[2-[2-(3-ethoxyphenyl)ethynyl]phenyl]methyl]piperazin-1-yl]pyridazine-3-carboxamide] | 0.3 | −17.1
CCOc1cncc(C#Cc2ccccc2CN2CCN(c3ccc(C(=O)NCC45CC6CC(CC(C6)C4)C5)nn3)CC2)c1 [B1A096-01, N-(1-Adamantylmethyl)-6-[4-[[2-[2-(5-ethoxypyridin-3-yl)ethynyl]phenyl]methyl]piperazin-1-yl]pyridazine-3-carboxamide] | 0.0 | 7.4
CCOc1cccc(-c2ccc(C(C)N3CCN(c4ccc(C(=O)NCC56CC7CC(CC(C7)C5)C6)cc4)CC3)cc2)c1 (stereo not drawn) [B1A097-01, N-(1-Adamantylmethyl)-4-[4-[1-[4-(3-ethoxyphenyl)phenyl]ethyl]piperazin-1-yl]benzamide] | 3.2 | 2.5
CCOc1cccc(-c2ccc(C(C)N3CCN(c4ccc(C(=O)NCC56CC7CC(CC(C7)C5)C6)cc4)CC3)c(F)c2)c1 (stereo not drawn) [B1A099-01, N-(1-Adamantylmethyl)-4-[4-[1-[4-(3-ethoxyphenyl)-2-fluorophenyl]ethyl]piperazin-1-yl]benzamide] | 0.9 | −0.9
CCOc1cncc(-c2ccc(C(C)N3CCN(c4ccc(C(=O)NCC56CC7CC(CC(C7)C5)C6)cc4)CC3)c(F)c2)c1 (stereo not drawn) [B1A100-01, N-(1-Adamantylmethyl)-4-[4-[1-[4-(5-ethoxypyridin-3-yl)-2-fluorophenyl]ethyl]piperazin-1-yl]benzamide] | 6.4 | 2.3
CCOc1cccc(-c2csc(C(=O)N3CCN(c4ccc(C(=O)NCC(F)(F)F)nn4)CC3)c2)c1 [B1K001-01, 6-[4-[4-(3-Ethoxyphenyl)thiophene-2-carbonyl]piperazin-1-yl]-N-(2,2,2-trifluoroethyl)pyridazine-3-carboxamide] | 0.0 | 0.0
CCOc1cncc(-c2csc(C(=O)N3CCN(c4ccc(C(=O)NCC(F)(F)F)nn4)CC3)c2)c1 [B1K002-01, 6-[4-[4-(5-Ethoxypyridin-3-yl)thiophene-2-carbonyl]piperazin-1-yl]-N-(2,2,2-trifluoroethyl)pyridazine-3-carboxamide] | 0.0 | 0.0
CCOc1cccc(-c2ccc(C(=O)N3CCN(c4ccc(C(=O)NCC(F)(F)F)nn4)CC3)cc2C)c1 [B1K003-01, 6-[4-[4-(3-Ethoxyphenyl)-3-methylbenzoyl]piperazin-1-yl]-N-(2,2,2-trifluoroethyl)pyridazine-3-carboxamide] | 0.1 | −0.2
CCOc1cncc(-c2ccc(C(=O)N3CCN(c4ccc(C(=O)NCC(F)(F)F)nn4)CC3)cc2C)c1 [B1K004-01, 6-[4-[4-(5-Ethoxypyridin-3-yl)-3-methylbenzoyl]piperazin-1-yl]-N-(2,2,2-trifluoroethyl)pyridazine-3-carboxamide] | 0.0 | 0.6
CCOc1cccc(-c2ccc(C(=O)N3CCN(c4ccc(C(=O)NCC(F)(F)F)nn4)CC3)cc2F)c1 [B1K005-01, 6-[4-[4-(3-Ethoxyphenyl)-3-fluorobenzoyl]piperazin-1-yl]-N-(2,2,2-trifluoroethyl)pyridazine-3-carboxamide] | −0.1 | 0.6
CCOc1cncc(-c2ccc(C(=O)N3CCN(c4ccc(C(=O)NCC(F)(F)F)nn4)CC3)cc2F)c1 [B1K006-01, 6-[4-[4-(5-Ethoxypyridin-3-yl)-3-fluorobenzoyl]piperazin-1-yl]-N-(2,2,2-trifluoroethyl)pyridazine-3-carboxamide] | −0.6 | 0.0
CCOc1cccc(C#Cc2ccccc2C(=O)N2CCN(c3ccc(C(=O)NCC(F)(F)F)nn3)CC2)c1 [B1K007-01, 6-[4-[2-[2-(3-Ethoxyphenyl)ethynyl]benzoyl]piperazin-1-yl]-N-(2,2,2-trifluoroethyl)pyridazine-3-carboxamide] | 0.0 | 1.3
